“And” between values parts separate entries of the source, which are not always exact repeats. Equal values may be shown once.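 Following 48 hours of exposure in 96-well plates, responses at five concentrations were used to interpolate endpoints linearly. GI50: concentration for 50% inhibition of growth. The concentration for full growth arrest is given as TGI.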 The source made the active and inactive calls. Rule as the data show it: active = GI50 below about 0.43 µM; inactive = the rest.
Tests used:
Assay in all cases: growth of human tumour cells (NCI), 48 h
LOX IMVI melanoma = test system: LOX IMVI melanoma
A549 NSCLC = test system: A549 NSCLC
MOLT-4 leukemia = test system: MOLT-4 leukemia
TK-10 renal = test system: TK-10 renal
OVCAR-8 ovarian = test system: OVCAR-8 ovarian
SK-MEL-28 melanoma = test system: SK-MEL-28 melanoma
SK-OV-3 ovarian = test system: SK-OV-3 ovarian
SF-295 CNS = test system: SF-295 CNS
T-47D breast = test system: T-47D breast

SMILES | GI50 (LOX IMVI melanoma) | GI50 (A549 NSCLC) | TGI (A549 NSCLC) | GI50 (MOLT-4 leukemia) | GI50 (TK-10 renal) | TGI (TK-10 renal) | GI50 (OVCAR-8 ovarian) | TGI (OVCAR-8 ovarian) | GI50 (SK-MEL-28 melanoma) | TGI (SK-MEL-28 melanoma) | TGI (LOX IMVI melanoma) | TGI (MOLT-4 leukemia) | GI50 (SK-OV-3 ovarian) | TGI (SK-OV-3 ovarian) | GI50 (SF-295 CNS) | TGI (SF-295 CNS) | TGI (T-47D breast) | outcome (T-47D breast) | GI50 (T-47D breast)
COc1cc(C2c3[nH]c4ccccc4c3C[C@H]3COC(=O)N23)cc(OC)c1OC (stereo partly drawn) | < 0.01 µM | 0.0233 µM | > 100 µM | < 0.01 µM | < 0.01 µM | > 100 µM | < 0.01 µM | 1.71 µM and 0.389 µM |  |  |  |  |  |  |  |  |  |  | 
COc1cc2c(cc1O)CC[C@@H]1[C@@H]2CC[C@]2(C)[C@@H](NCCN(C)C)CC[C@@H]12 | 0.11 µM | 0.3 µM | 0.827 µM | 0.187 µM | 0.467 µM | 0.932 µM |  |  | 0.0883 µM | 0.262 µM | 0.405 µM | 0.695 µM | 0.194 µM | 0.667 µM | 0.163 µM | 0.61 µM |  |  | 
Cc1c(N2CCCC2)cc2c(c1NC(=O)c1ccccc1Cl)C(C)(C)CC2(C)C |  |  | 27.6 µM |  |  | 23.1 µM |  | 32.6 µM |  | 33.1 µM | 27.4 µM |  |  | 27.2 µM |  | 26.8 µM | 24.6 µM |  | 
CN(C)c1ccc2c(=O)c3ccccc3oc2n1 |  |  | > 100 µM |  |  | > 100 µM |  | > 100 µM |  | > 100 µM | > 100 µM | > 100 µM |  | > 100 µM |  | > 100 µM |  |  | 
O=C1[C@@H]2C(c3ccccc3Br)=NO[C@@H]2C(=O)N1c1ccc(Cc2ccc(N3C(=O)[C@H]4C(c5ccccc5Br)=NO[C@H]4C3=O)cc2)cc1 |  |  | > 100 µM |  |  | > 100 µM |  | > 100 µM |  | > 100 µM | > 100 µM | > 100 µM |  | > 100 µM |  | > 100 µM |  |  | 
CC(C)(C)NNC(=O)/C(=C/c1ccc([N+](=O)[O-])cc1)NC(=O)c1ccccc1 |  |  | > 100 µM |  |  | > 100 µM |  | > 100 µM |  | > 100 µM | 37.2 µM | > 100 µM |  | > 100 µM |  | > 100 µM |  |  | 
CCCCCCCCCCCCNC(C)=O |  |  | > 100 µM |  |  | 31.6 µM |  | 44.5 µM |  | 31.4 µM | 23.1 µM |  |  | 29.1 µM |  | 34.4 µM | 66.3 µM |  | 
CC(C)/C=C1\CCC(CN2CCCC2)C1=O (stereo not drawn) |  |  | 20.1 µM |  |  | 24.7 µM |  | 16.5 µM |  | 32.9 µM | 42.3 µM | 14.9 µM |  | > 100 µM |  | > 94.5 µM |  |  | 
COc1ccc(C2CC(=O)c3c(O)cc(O)cc3O2)cc1O (stereo not drawn) |  |  | > 100 µM |  |  | > 100 µM |  | > 100 µM |  | > 100 µM | > 100 µM | > 100 µM |  | > 100 µM |  | > 100 µM |  |  | 
COC(=O)CCC(=O)C(=O)OC | 13300 µM | 52900 µM |  | 34800 µM |  |  | 63200 µM |  | 17600 µM | 60400 µM |  |  | 11700 µM | 62000 µM | 42000 µM |  |  | inactive | 
OC(c1cccc(-n2ccc(C(F)(F)F)n2)c1)c1cnccc1NC1CCCCCC1 (stereo not drawn) | 1.69 µM | 1.81 µM | 3.56 µM | 2.16 µM | 1.77 µM | 3.49 µM | 1.92 µM | 3.93 µM | 1.77 µM | 3.2 µM | 3.12 µM | 4.83 µM |  |  | 1.79 µM | 3.2 µM | 4.23 µM |  | 1.77 µM
COc1ccc2oc(=O)cc(C(c3ccc[nH]3)c3ccc[nH]3)c2c1 | 0.104 µM | 0.118 µM | 10.8 µM | 0.111 µM | 0.155 µM | 15.6 µM | 0.116 µM | 14.2 µM | 0.874 µM | 14 µM | 7.57 µM | 12 µM |  |  | 0.092 µM | 0.214 µM | 26.6 µM |  | 0.118 µM
COc1ccccc1NC(=O)c1sc2nc3c(cc2c1N)C(=O)CCC3 | > 100 µM | 2.11 µM | > 100 µM | > 100 µM |  |  | 3.97 µM | > 100 µM | 3.46 µM | > 100 µM | > 100 µM | > 100 µM | 3.59 µM | > 100 µM | 1.75 µM | > 100 µM | > 100 µM |  | > 100 µM
COC(=O)C1=C(c2ccc(OC)c(OC)c2)OC(c2ccc(OC)c(OC)c2)C1 (stereo not drawn) |  |  | > 100 µM |  |  | > 100 µM |  | > 100 µM |  | > 100 µM | > 100 µM | 47.5 µM |  | 96.7 µM |  | > 100 µM |  |  | 
Cc1ccc(S(=O)(=O)N[C@H](C(=O)O)c2ccccc2)cc1 |  |  | > 100 µM |  |  | > 100 µM |  | > 100 µM |  | > 100 µM | > 100 µM | > 100 µM |  | > 100 µM |  | > 100 µM |  |  | 
COc1cccc2c1C(=O)C=CC2=O |  |  | 40.4 µM |  |  | 28.4 µM |  | 9.97 µM |  | 33.6 µM |  | 2.34 µM |  | 36.2 µM |  | 29.2 µM | 5.04 µM |  | 

SMILES | GI50 (LOX IMVI melanoma) | GI50 (A549 NSCLC) | TGI (A549 NSCLC) | GI50 (MOLT-4 leukemia) | GI50 (TK-10 renal) | TGI (TK-10 renal) | GI50 (OVCAR-8 ovarian) | TGI (OVCAR-8 ovarian) | GI50 (SK-MEL-28 melanoma) | TGI (SK-MEL-28 melanoma) | TGI (LOX IMVI melanoma) | TGI (MOLT-4 leukemia) | GI50 (SK-OV-3 ovarian) | TGI (SK-OV-3 ovarian) | GI50 (SF-295 CNS) | TGI (SF-295 CNS) | TGI (T-47D breast) | outcome (T-47D breast) | GI50 (T-47D breast)
CC(NS(=O)(=O)c1ccc([N+](=O)[O-])cc1)C(=O)O (stereo not drawn) |  |  | > 100 µM |  |  | > 100 µM |  | > 100 µM |  | > 100 µM | > 100 µM | > 100 µM |  | > 100 µM |  | > 100 µM |  |  | 
NC1=NC(=O)/C(=C/c2ccccc2[N+](=O)[O-])C(N)=N1 |  |  | > 100 µM |  |  | > 100 µM |  | > 100 µM |  | > 100 µM | > 100 µM | > 100 µM |  | > 100 µM |  | > 100 µM |  |  | 
CS/C(=N\C(=S)N(C)C)N(c1ccccc1)c1nc(=[N+](C)C)ss1 |  |  | 22.3 µM |  |  | > 100 µM |  | 28.1 µM |  | 9.22 µM | 18.1 µM | 18.3 µM |  | > 100 µM |  | 57.4 µM |  |  | 
NC(=O)NNCc1ccccc1 |  |  | > 100 µM |  |  | > 100 µM |  | > 100 µM |  |  | > 100 µM | > 100 µM |  | > 100 µM |  | > 100 µM | > 100 µM |  | 
O=[N+]([O-])c1ccc(S(=O)(=O)Cc2ccccc2)c([N+](=O)[O-])c1 |  |  | 33.3 µM |  |  | 3.28 µM |  | 3.7 µM |  | 8.24 µM | 3.39 µM |  |  | 13.2 µM |  | 33.6 µM | 4.48 µM |  | 
CCOc1ccccc1NC(=O)CC1C(=O)Nc2ccccc2S1=O (stereo not drawn) |  |  | > 100 µM |  |  | > 100 µM |  | > 100 µM |  | > 100 µM | > 100 µM | 39.5 µM |  |  |  | > 100 µM |  |  | 
CC1CC(C2=CC=CCS2)=Nc2ccccc2S1 (stereo not drawn) |  |  | > 100 µM |  |  | > 100 µM |  | > 100 µM |  | > 100 µM | > 100 µM | > 100 µM |  | > 100 µM |  | > 100 µM |  |  | 
Cc1nc(-c2cccc(Nc3nc(-c4ccc(Cl)cc4)cs3)c2)cs1 | 7.3 µM | 8.9 µM | 24.7 µM | 30.9 µM | 8.31 µM | 17.8 µM | 10.1 µM | 23.2 µM | 9.6 µM | 21.3 µM | 13.9 µM | > 50 µM | 11.9 µM | 25.4 µM | 10.6 µM | 28.5 µM |  |  | 
O=C(Nc1ccccc1-c1n[nH]c(=S)[nH]c1=O)C(F)(F)F |  |  | > 100 µM |  |  | > 100 µM |  | > 100 µM |  | > 100 µM | > 100 µM | > 100 µM |  | > 100 µM |  | > 100 µM |  |  | 
Cc1ccccc1NC(=O)C(=O)C(C#N)c1ccc(Cl)cc1 (stereo not drawn) |  |  | > 100 µM |  |  | > 100 µM |  | > 100 µM |  | > 100 µM | 31 µM | > 100 µM |  | > 100 µM |  | > 100 µM |  |  | 
O=C(Nc1ccc(Cl)cc1Cl)C1C(=O)N(c2ccc(Cl)cc2Cl)C(=O)/C1=N\Nc1ccc([N+](=O)[O-])cc1[N+](=O)[O-] (stereo not drawn) |  |  | > 100 µM |  |  | > 100 µM |  | > 100 µM |  | > 100 µM |  | 74.8 µM |  | > 100 µM |  | > 100 µM |  |  | 
COc1ccc(C2CC(c3cc(OC)c(OC)c(OC)c3)=NO2)cc1OCCCCOc1cc2c(cc1OC)C(=O)N1CCC[C@H]1C=N2 (stereo partly drawn) | 1.47 µM | 2.33 µM | 5.68 µM | 1.85 µM | 3.51 µM | 9.41 µM | 2.55 µM | 7.74 µM | 2.07 µM | 4.1 µM | 2.84 µM | 4.61 µM | 3.37 µM | 9.46 µM |  |  | 4.11 µM |  | 1.31 µM
COc1cc(/C=C/c2ccncc2)cc(OC)c1OC |  |  | > 100 µM |  |  | > 100 µM |  | > 100 µM |  | > 100 µM | > 100 µM | > 100 µM |  |  |  | > 100 µM |  |  | 
CC1CC[C@]2(C(=O)O)CCC3(COC(=O)/C=C\c4ccc(O)cc4)C(=CCC4[C@@]5(C)CC[C@H](O)C(C)(C)C5CC[C@]43C)[C@@H]2[C@H]1C (stereo partly drawn) |  |  | 26.3 µM |  |  | 44.7 µM |  | 46.3 µM |  | 35.5 µM | 28.2 µM | > 100 µM |  | 21.6 µM |  | 31.7 µM |  |  | 
F | 2290 µM | 2730 µM | > 6870 µM | > 6870 µM | 3400 µM | > 6870 µM | 3250 µM | > 6870 µM |  |  | > 6870 µM | > 6870 µM | 3680 µM | > 6870 µM | 2050 µM | 6380 µM | 5670 µM |  | 2100 µM
Cc1ccc(NC(=O)c2cc3cc(N=Nc4ccc(Br)cc4)ccc3oc2=O)cc1 |  |  | > 100 µM |  |  | > 100 µM |  |  |  | > 100 µM | > 100 µM | > 100 µM |  | > 100 µM |  | > 100 µM |  |  | 

Source: PubChem BioAssay (NCI)
